{"source": "patent US20080200454A1", "about": "“CARBON-LINKED TETRAHYDRO-PYRAZOLO-PYRIDINE MODULATORS OF CATHEPSIN S” (priority 2007, published 2008)", "target": "Recombinant human cathepsin S (CatS) (Homo sapiens, UniProt P25774)", "sequence (P25774 115-331)": "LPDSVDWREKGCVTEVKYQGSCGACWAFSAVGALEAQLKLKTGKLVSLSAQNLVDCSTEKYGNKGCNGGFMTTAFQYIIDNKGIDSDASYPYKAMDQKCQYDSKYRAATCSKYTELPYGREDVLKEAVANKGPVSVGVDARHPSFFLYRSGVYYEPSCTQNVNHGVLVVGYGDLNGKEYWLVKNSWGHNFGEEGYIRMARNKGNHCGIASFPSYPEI", "assay": "Recombinant human cathepsin S (CatS) inhibition assay, fluorogenic substrate Z-Valine-Valine-Arginine-AMC;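 note: Baculovirus-expressed CatS in pH 5.0 sodium acetate buffer with DTT and NaCl, fluorescence read each minute over 20 min, inhibition derived from rate slope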", "note": "Read-outs that look alike come from different tables or passages of the source.", "data": [{"smiles": "CCN(CC)CC#Cc1cc(-c2nn(CCCN3CCOCC3)c3c2CN(S(C)(=O)=O)CC3)ccc1Cl", "note": "[Example 49, (3-{2-Chloro-5-[5-methanesulfonyl-1-(3-morpholin-4-yl-propyl)-4,5,6,7-tetrahydro-1H-pyrazolo[4,3-c]pyridin-3-yl]-phenyl}-prop-2-ynyl)-diethyl-amine]", "values": [{"measurement": "IC50", "value": 19500, "unit": "nM"}]}, {"smiles": "CS(=O)(=O)N1CCc2c(c(-c3ccc(Cl)c(C#CCN4CCS(=O)(=O)CC4)c3)nn2CCCN2CCOCC2)C1", "note": "[Example 50, 3-{4-Chloro-3-[3-(1,1-dioxo-1 A^6-thiomorpholin-4-yl)-prop-1-ynyl]-phenyl}-5-methanesulfonyl-1-(3-morpholin-4-yl-propyl)-4,5,6,7-tetrahydro-1H-pyrazolo[4,3-c]pyridine]", "values": [{"measurement": "IC50", "value": 6800, "unit": "nM"}]}, {"smiles": "CC(C)CC#Cc1cc(-c2nn(CCCN3CCOCC3)c3c2CN(S(C)(=O)=O)CC3)ccc1Cl", "note": "[Example 51, 3-[4-Chloro-3-(4-methyl-pent-1-ynyl)-phenyl]-5-methanesulfonyl-1-(3-morpholin-4-yl-propyl)-4,5,6,7-tetrahydro-1H-pyrazolo[4,3-c]pyridine]", "values": [{"measurement": "IC50", "setting": "CatS IC50", "value": 8250, "unit": "nM"}]}, {"smiles": "CS(=O)(=O)N1CCc2c(c(-c3ccc(Cl)c(C#CCOc4ccccc4)c3)nn2CCCN2CCOCC2)C1", "note": "[Example 52, 3-[4-Chloro-3-(3-phenoxy-prop-1-ynyl)-phenyl]-5-methanesulfonyl-1-(3-morpholin-4-yl-propyl)-4,5,6,7-tetrahydro-1H-pyrazolo[4,3-c]pyridine]", "values": [{"measurement": "IC50", "value": 13500, "unit": "nM"}]}, {"smiles": "CS(=O)(=O)N1CCc2c(c(-c3ccc(Cl)c(C#CCNC(=O)c4ccccc4)c3)nn2CCCN2CCOCC2)C1", "note": "[Example 53, N-(3-{2-Chloro-5-[5-methanesulfonyl-1-(3-morpholin-4-yl-propyl)-4,5,6,7-tetrahydro-1H-pyrazolo[4,3-c]pyridin-3-yl]-phenyl}-prop-2-ynyl)-benzamide]", "values": [{"measurement": "IC50", "value": 15500, "unit": "nM"}]}, {"smiles": "CS(=O)(=O)N1CCc2c(c(-c3ccc(Cl)c(C#CCNS(=O)(=O)c4ccccc4)c3)nn2CCCN2CCOCC2)C1", "note": "[Example 54, N-(3-{2-Chloro-5-[5-methanesulfonyl-1-(3-morpholin-4-yl-propyl)-4,5,6,7-tetrahydro-1H-pyrazolo[4,3-c]pyridin-3-yl]-phenyl]-prop-2-ynyl)-benzenesulfonamide]", "values": [{"measurement": "IC50", "value": 7050, "unit": "nM"}]}, {"smiles": "CS(=O)(=O)N1CCc2c(c(-c3ccc(Cl)c(CCc4ccc(Oc5ccccc5)cc4)c3)nn2CCCN2CCOCC2)C1", "note": "[Example 55, 3-{4-Chloro-3-[2-(4-phenoxy-phenyl)-ethyl]-phenyl}-5-methanesulfonyl-1-(3-morpholin-4-yl-propyl)-4,5,6,7-tetrahydro-1H-pyrazolo[4,3-c]pyridine]", "values": [{"measurement": "IC50", "value": 1070, "unit": "nM"}]}, {"smiles": "CS(=O)(=O)N1CCc2c(c(-c3ccc(Cl)c(CCc4cccc(O)c4)c3)nn2CCCN2CCOCC2)C1", "note": "[Example 56, 3-(2-{2-Chloro-5-[5-methanesulfonyl-1-(3-morpholin-4-yl-propyl)-4,5,6,7-tetrahydro-1H-pyrazolo[4,3-c]pyridin-3-yl]-phenyl}-ethyl)-phenol]", "values": [{"measurement": "IC50", "value": 910, "unit": "nM"}]}, {"smiles": "CS(=O)(=O)N1CCc2c(c(-c3ccc(Cl)c(CCc4ccc(Cl)cc4)c3)nn2CCCN2CCOCC2)C1", "note": "[Example 57, 3-{4-Chloro-3-[2-(4-chloro-phenyl)-ethyl]-phenyl}-5-methanesulfonyl-1-(3-morpholin-4-yl-propyl)-4,5,6,7-tetrahydro-1H-pyrazolo[4,3-c]pyridine]", "values": [{"measurement": "IC50", "value": 230, "unit": "nM"}]}, {"smiles": "COc1ccc(CCc2cc(-c3nn(CCCN4CCOCC4)c4c3CN(S(C)(=O)=O)CC4)ccc2Cl)cc1", "note": "[Example 58, 3-{4-Chloro-3-[2-(4-methoxy-phenyl)-ethyl]-phenyl}-5-methanesulfonyl-1-(3-morpholin-4-yl-propyl)-4,5,6,7-tetrahydro-1H-pyrazolo[4,3-c]pyridine]", "values": [{"measurement": "IC50", "value": 530, "unit": "nM"}]}, {"smiles": "CS(=O)(=O)N1CCc2c(c(-c3ccc(Cl)c(CCc4ccc(F)cc4F)c3)nn2CCCN2CCOCC2)C1", "note": "[Example 59, 3-{4-Chloro-3-[2-(2,4-difluoro-phenyl)-ethyl]-phenyl}-5-methanesulfonyl-1-(3-morpholin-4-yl-propyl)-4,5,6,7-tetrahydro-1H-pyrazolo[4,3-c]pyridine]", "values": [{"measurement": "IC50", "value": 660, "unit": "nM"}]}, {"smiles": "Cc1ccccc1CCc1cc(-c2nn(CCCN3CCOCC3)c3c2CN(S(C)(=O)=O)CC3)ccc1Cl", "note": "[Example 60, 3-[4-Chloro-3-(2-o-tolyl-ethyl)-phenyl]-5-methanesulfonyl-1-(3-morpholin-4-yl-propyl)-4,5,6,7-tetrahydro-1H-pyrazolo[4,3-c]pyridine]", "values": [{"measurement": "IC50", "value": 880, "unit": "nM"}]}, {"smiles": "CS(=O)(=O)N1CCc2c(c(-c3ccc(Cl)c(CCc4ccc(CO)cc4)c3)nn2CCCN2CCOCC2)C1", "note": "[Example 61, [4-(2-{2-Chloro-5-[5-methanesulfonyl-1-(3-morpholin-4-yl-propyl)-4,5,6,7-tetrahydro-1H-pyrazolo[4,3-c]pyridin-3-yl]-phenyl}-ethyl)-phenyl]-methanol]", "values": [{"measurement": "IC50", "value": 200, "unit": "nM"}]}, {"smiles": "CS(=O)(=O)N1CCc2c(c(-c3ccc(Cl)c(CCc4ccccc4)c3)nn2CCCN2CCOCC2)C1", "note": "[Example 62, 3-(4-Chloro-3-phenethyl-phenyl)-5-methanesulfonyl-1-(3-morpholin-4-yl-propyl)-4,5,6,7-tetrahydro-1H-pyrazolo[4,3-c]pyridine]", "values": [{"measurement": "IC50", "value": 1230, "unit": "nM"}]}, {"smiles": "CS(=O)(=O)N1CCc2c(c(-c3ccc(Cl)c(CCCc4ccccc4)c3)nn2CCCN2CCOCC2)C1", "note": "[Example 63, 3-[4-Chloro-3-(3-phenyl-propyl)-phenyl]-5-methanesulfonyl-1-(3-morpholin-4-yl-propyl)-4,5,6,7-tetrahydro-1H-pyrazolo[4,3-c]pyridine]", "values": [{"measurement": "IC50", "value": 1400, "unit": "nM"}]}, {"smiles": "CS(=O)(=O)N1CCc2c(c(-c3ccc(Cl)c(CCCNC(=O)c4ccccc4)c3)nn2CCCN2CCOCC2)C1", "note": "[Example 64, N-(3-{2-Chloro-5-[5-methanesulfonyl-1-(3-morpholin-4-yl-propyl)-4,5,6,7-tetrahydro-1H-pyrazolo[4,3-c]pyridin-3-yl]-phenyl}-propyl)-benzamide]", "values": [{"measurement": "IC50", "value": 5400, "unit": "nM"}]}, {"smiles": "CS(=O)(=O)N1CCc2c(c(-c3ccc(Cl)c(CCCNS(=O)(=O)c4ccccc4)c3)nn2CCCN2CCOCC2)C1", "note": "[Example 65, N-(3-{2-Chloro-5-[5-methanesulfonyl-1-(3-morpholin-4-yl-propyl)-4,5,6,7-tetrahydro-1H-pyrazolo[4,3-c]pyridin-3-yl]-phenyl}-propyl)-benzenesulfonamide]", "values": [{"measurement": "IC50", "value": 1070, "unit": "nM"}]}, {"smiles": "CC(=O)Nc1ccc(C#Cc2cc(-c3nn(CCCN4CCOCC4)c4c3CN(S(C)(=O)=O)CC4)ccc2Cl)cc1", "note": "[Example 66, N-(4-{2-Chloro-5-[5-methanesulfonyl-1-(3-morpholin-4-yl-propyl)-4,5,6,7-tetrahydro-1H-pyrazolo[4,3-c]pyridin-3-yl]-phenylethynyl}-phenyl)-acetamide]", "values": [{"measurement": "IC50", "value": 250, "unit": "nM"}]}, {"smiles": "CS(=O)(=O)N1CCc2c(c(-c3ccc(Cl)c(/C=C\\c4ccccc4)c3)nn2CCCN2CCOCC2)C1", "note": "[Example 67, 3-(4-Chloro-3-Z-styryl-phenyl)-5-methanesulfonyl-1-(3-morpholin-4-yl-propyl)-4,5,6,7-tetrahydro-1H-pyrazolo[4,3-c]pyridine]", "values": [{"measurement": "IC50", "value": 3050, "unit": "nM"}]}, {"smiles": "CS(=O)(=O)N1CCc2c(c(-c3ccc(Cl)c(/C=C/c4ccccc4)c3)nn2CCCN2CCOCC2)C1", "note": "[Example 68, 3-(4-Chloro-3-E-styryl-phenyl)-5-methanesulfonyl-1-(3-morpholin-4-yl-propyl)-4,5,6,7-tetrahydro-1H-pyrazolo[4,3-c]pyridine]", "values": [{"measurement": "IC50", "value": 2850, "unit": "nM"}]}, {"smiles": "CS(=O)(=O)N1CCc2c(c(-c3ccc(Cl)c(C#Cc4ccc(CN)cc4)c3)nn2CCCN2CCOCC2)C1", "note": "[Example 69, 4-{2-Chloro-5-[5-methanesulfonyl-1-(3-morpholin-4-yl-propyl)-4,5,6,7-tetrahydro-1H-pyrazolo[4,3-c]pyridin-3-yl]-phenylethynyl}-benzylamine]", "values": [{"measurement": "IC50", "value": 530, "unit": "nM"}]}, {"smiles": "CS(=O)(=O)NCc1ccc(C#Cc2cc(-c3nn(CCCN4CCOCC4)c4c3CN(S(C)(=O)=O)CC4)ccc2Cl)cc1", "note": "[Example 70, N-(4-{2-Chloro-5-[5-methanesulfonyl-1-(3-morpholin-4-yl-propyl)-4,5,6,7-tetrahydro-1H-pyrazolo[4,3-c]pyridin-3-yl]-phenylethynyl}-benzyl)-methanesulfonamide]", "values": [{"measurement": "IC50", "value": 270, "unit": "nM"}]}, {"smiles": "CS(=O)(=O)N1CCc2c(c(-c3ccc(Cl)c(C#Cc4ccc(CNS(=O)(=O)c5ccccc5)cc4)c3)nn2CCCN2CCOCC2)C1", "note": "[Example 71, N-(4-{2-Chloro-5-[5-methanesulfonyl-1-(3-morpholin-4-yl-propyl)-4,5,6,7-tetrahydro-1H-pyrazolo[4,3-c]pyridin-3-yl]-phenylethynyl}-benzyl)-benzenesulfonamide]", "values": [{"measurement": "IC50", "value": 170, "unit": "nM"}]}, {"smiles": "CC(=O)NCc1ccc(C#Cc2cc(-c3nn(CCCN4CCOCC4)c4c3CN(S(C)(=O)=O)CC4)ccc2Cl)cc1", "note": "[Example 72, N-(4-{2-Chloro-5-[5-methanesulfonyl-1-(3-morpholin-4-yl-propyl)-4,5,6,7-tetrahydro-1H-pyrazolo[4,3-c]pyridin-3-yl]-phenylethynyl}-benzyl)-acetamide]", "values": [{"measurement": "IC50", "value": 490, "unit": "nM"}]}, {"smiles": "CS(=O)(=O)N1CCc2c(c(-c3ccc(Cl)c(C#Cc4ccc(CNC(=O)c5ccccc5)cc4)c3)nn2CCCN2CCOCC2)C1", "note": "[Example 73, N-(4-{2-Chloro-5-[5-methanesulfonyl-1-(3-morpholin-4-yl-propyl)-4,5,6,7-tetrahydro-1H-pyrazolo[4,3-c]pyridin-3-yl]-phenylethynyl}-benzyl)-benzamide]", "values": [{"measurement": "IC50", "value": 350, "unit": "nM"}]}, {"smiles": "CS(=O)(=O)N1CCc2c(c(-c3ccc(Cl)c(C#Cc4ccc(CNCc5ccccc5)cc4)c3)nn2CCCN2CCOCC2)C1", "note": "[Example 74, Benzyl-(4-{2-chloro-5-[5-methanesulfonyl-1-(3-morpholin-4-yl-propyl)-4,5,6,7-tetrahydro-1H-pyrazolo[4,3-c]pyridin-3-yl]-phenylethynyl}-benzyl)-amine]", "values": [{"measurement": "IC50", "value": 430, "unit": "nM"}]}, {"smiles": "Cc1ccc(CNCc2ccc(C#Cc3cc(-c4nn(CCCN5CCOCC5)c5c4CN(S(C)(=O)=O)CC5)ccc3Cl)cc2)cc1", "note": "[Example 75, (4-{2-Chloro-5-[5-methanesulfonyl-1-(3-morpholin-4-yl-propyl)-4,5,6,7-tetrahydro-1H-pyrazolo[4,3-c]pyridin-3-yl]-phenylethynyl]-benzyl)-(4-methyl-benzyl)-amine]", "values": [{"measurement": "IC50", "value": 350, "unit": "nM"}]}]}
